Assay results published in patent publication US10912767B2, “Anthracycline prodrugs and methods of making and using the same” (THE REGENTS OF THE UNIVERSITY OF COLORADO, priority 2015, dated 2021).
Where two headings read alike, the source gives them in different places. Non-standard residues stand in square brackets, D forms with d. Residues, ends and D or L forms follow the SMILES beside them. *: point of attachment. X1 = COc1cc(C(C)OC(=O)N2CO[C@@H]3[C@H](C)OC(OC4CC(O)(C(=O)CO)Cc5c(O)c6c(c(O)c54)C(=O)c4c(OC)cccc4C6=O)C[C@@H]32)c([N+](=O)[O-])cc1OCC(=O)NCCOCCOCCOCCn1nnc2c1-c1ccccc1CN(C(=O)CCNC(=O)CCN1C(=O)CC(*)C1=O)c1ccccc1-2; Mpa = O=C(O)CCS

Legend:
[1] = Photolysis timecourses, near UV blacklight 350 nm, HPLC; assay type: physicochemical
Text: In order to investigate the photolysis of the drugs in a system amenable to cell culture use, a custom UV irradiation apparatus was constructed, consisting of 3 small blacklight fluorescent bulbs (Southern New England Ultraviolet Co., λmax=350 nm) set between two ring stands and suspended at a height of 11.5 cm. The bulbs' housing was reflective aluminum so as to direct as much UV irradiation as possible downward toward the plate. Upon installation in sterile cell culture hood, the power of the system was measured at approximately 6-7 mW using a Scientech laser power meter. Prior to experimentation, the hood and irradiation apparatus was sterilized with 254 nm germicidal UV irradiation overnight. Using this setup, 100 μM of 4,5-dimethoxy-2-nitrobenyl alcohol (DMNA), photodoxazolidine R═H, and glucose-PEG-photodoxazoldine were irradiated in individual wells of a 24-well plate. Initially, 50 μL of a DMSO stock was diluted with 950 μL of PBS and aliquots of 50 μL were removed at various times (0-180 min), mixing by pipetting each time. The timepoints were analyzed by HPLC (method 2) and plotted as fractional conversion versus time. […] Therefore, a second experiment was performed in which the PBS was replaced with 1:1 acetonitrile:water. With this system of 5% DMSO/47.5% acetonitrile/47.5% water, no visible precipitation was produced over the course of the reaction.
The measured quantum yield of 0.002 for photodoxazolidine R═H (above) was lower than expected, which raised the possibility that the presence of the anthraquinone ring complex in the prodrugs was inhibiting photocleavage by quenching the activated state. To test whether this, the irradiation kinetics of DMNA (4, 5-dimethoxy-2-nitrobenzyl alcohol) was compared against photodoxazolidine R═H, which contains the DMNA unit as the photoactivating group. Additionally, glucose-PEG-photodoxazoldine was included for comparison; a synthetic precursor to this compound, azido-PEG-photodoxazolidine, is suspected of having a quantum yield of 0.01-0.02, which is 5-10-fold larger than photodoxazolidine. Irradiation was performed in 24-well cell culture dishes using the cell culture irradiation system described above with the soft-glass high-pass filter. […] In both cases, photodoxazolidine was the slowest to produce dox from the irradiation. In line with its quantum yield, glucose-PEG-photodoxazolidine reacted 4-5-fold faster than photodoxazolidine. However, DMNA was by far the fastest to undergo photochemistry in this system, converting to product approximately 30-fold faster than photodoxazolidine.

[2] = system: MDA-MB-231 human breast cancer cells; assay: cells; assay type: cell-based
Protocol: The breast carcinoma line MDA-MB-231 was cultured in Minimum Essential Media (MEM) supplemented with 10% of fetal bovine serum (FBS), 100 units/mL of penicillin and 100 μg/mL of streptomycin, and 1 mM of sodium pyruvate. The cells were incubated at 37° C. in an atmosphere of 95% air and 5% CO2.
The cells were seeded to 96-well plates at a density of 1000 cells/well and allowed to adhere overnight. The prodrugs with various concentrations in MEM were added and the cells were incubated at 37° C. for 24 h. After the media was removed, the cells were washed with PBS two times. The cells in PBS (50 μL) were irradiated for 15 min, followed by incubating at room temperature for 30 min. The PBS was replaced with fresh media and the cells were grown until the no-drug control reached 80% confluency, or 5 days. Cell density was measured by crystal violet staining.
The membrane permeability of the photoactivated prodrugs and their cellular uptake by MDA-MB-231 human breast cancer cells were each monitored by fluorescence microscopy. After the cells were grown with the prodrugs for 24 h, they were washed with PBS two times to remove the prodrugs that remained outside of the cells. The cellular uptake of 10 μM glucose-photodoxazolidine and glucose-PEG-photodoxazolidine was monitored with the fluorescence of the anthraquinone fluorophore. The prodrugs were then activated inside of the cells by black lamp UV irradiation (maximum intensity at 350 nm) for 15 min. […] This drastic change of cytotoxicity presumably arises from membrane permeability of MARCKS-ED peptide and possibly some phototoxicity from longer irradiation time.

## COc1cc(CO)c([N+](=O)[O-])cc1OC [DMNA, 4,5-dimethoxy-2-nitrobenzylalcohol, reference compound]
[1]; 100 μM, 1:1 acetonitrile:water, near UV 350 nm
  k in ACN: H2O, relative rate constant for photocleavage: 0.21 min⁻¹
[1]; 100 μM, PBS, near UV 350 nm
  k in PBS, relative rate constant for photocleavage: 0.081 min⁻¹
[1]; 1:1 acetonitrile:water
  k in ACN: H2O, fold over photodoxazolidine: (30)
[1]; PBS
  k in PBS, fold over photodoxazolidine: (31)
[1]; both solvents
  photochemical reaction, fold faster than photodoxazolidine: approximately 30 fold

## COc1cc(C(C)OC(=O)N2CO[C@@H]3[C@H](C)OC(OC4CC(O)(C(=O)CO)Cc5c(O)c6c(c(O)c54)C(=O)c4c(OC)cccc4C6=O)C[C@@H]32)c([N+](=O)[O-])cc1OCC(=O)NCCOCCOCCOCCn1nnc2c1-c1ccccc1CN(C(=O)CCNC(=O)CCN1C(=O)CC(SCCC(=O)N[C@@H](CCCCN)C(=O)N[C@@H](CCCCN)C(=O)N[C@@H](CCCCN)C(=O)N[C@@H](CCCCN)C(=O)N[C@@H](CCCCN)C(=O)N[C@@H](CCCNC(=N)N)C(=O)N[C@@H](Cc3ccccc3)C(=O)N[C@@H](CO)C(=O)N[C@@H](Cc3ccccc3)C(=O)N[C@@H](CCCCN)C(=O)N[C@@H](CCCCN)C(=O)N[C@@H](CO)C(=O)N[C@@H](Cc3ccccc3)C(=O)N[C@@H](CCCCN)C(=O)N[C@@H](CC(C)C)C(=O)N[C@@H](CO)C(=O)NCC(=O)N[C@@H](Cc3ccccc3)C(=O)N[C@@H](CO)C(=O)N[C@@H](Cc3ccccc3)C(=O)N[C@@H](CCCCN)C(=O)N[C@@H](CCCCN)C(=O)N[C@@H](CC(N)=O)C(=O)N[C@@H](CCCCN)C(=O)N[C@@H](CCCCN)C(N)=O)C1=O)c1ccccc1-2 (some centres unmarked) [MARCKS-PEG-Photodoxazolidine] ([Mpa](X1)KKKKKRFSFKKSFKLSGFSFKKNKK-NH2)
[2]; light −, 24 h incubation, read-out: IC50
  IC50: 1300 nM

## COc1cc(C(C)OC(=O)N2COC3C(C)OC(OC4CC(O)(C(=O)CO)Cc5c(O)c6c(c(O)c54)C(=O)c4c(OC)cccc4C6=O)CC32)c([N+](=O)[O-])cc1OCC(=O)NC1C(O)OC(CO)C(O)C1O (centres unmarked) [Glucose-Phtodoxazolidine]
[2]; Homo sapiens, MDA-MB-231
  IC50: 832 nM
[2]; Homo sapiens, MDA-MB-231, 24 h
  IC50: 2080 nM
